Assay results published in patent US20120264825A1, “Amino Acid Perhydrates, Process for Their Preparation and Uses thereof” (priority 2009, published 2012).

Tests used:
[1] = Description: The compounds may be kept, for example, in closed vessels in a 4° C. refrigerator.
[2] = peak appears above the melting temperature; 2 degree/min under nitrogen flow
Description: TG and DSC studies were performed on Thermobalance, TG50 and differential scanning calorimeter, DSC 822 (Mettler, Toledo) in the range 25-200° C. under nitrogen flow at a heating rate of 2 degree/min.

Q: With `N[C@@H](CO)C(=O)O.OO` [Example 1, L-Serine Mono Hydrogen Peroxide Solvate C3H7NO3.H2O2] as the compound, how does the “hydrogen peroxide concentration on storage” value ([1]; room temperature, several months) read?
A: The value was “maintained constant hydrogen peroxide concentration for several months”.

Q: And the “loss of active oxygen on storage” value ([1]; stored at room temperature for at least three weeks)?
A: The value was “no loss of active oxygen”.

Q: What about the “exothermic decomposition peak (DSC)” value [2] of the same compound?
A: The value was “about 85 °C”.
